In paper PMC7956587, “Molecular Docking Studies and Biological Evaluation of Berberine–Benzothiazole Derivatives as an Anti-Influenza Agent via Blocking of Neuraminidase” (International Journal of Molecular Sciences, 2021):

test system: influenza A virus A/PR/8/34 (H1N1); test: In vitro antiviral bioassay (CPE reduction, SRB) in MDCK cells; type: cell-based; conditions: Influenza A virus, MDCK, 48 h

Question: With `COc1ccc2nc(NCCCCCOc3c(OC)ccc4cc5[n+](cc34)CCc3cc4c(cc3-5)OCO4)sc2c1` [BBD 5] as the compound, how does the IC50 read?
Answer: Its IC50 is 39.54 ± 0.326 µg/mL.

Question: Which IC50 does the source give for `CCOc1ccc2nc(NCCCCCOc3c(OC)ccc4cc5[n+](cc34)CCc3cc4c(cc3-5)OCO4)sc2c1` [BBD 6] here?
Answer: The IC50 was 42.8 ± 0.478 µg/mL.

Question: With `COc1ccc2cc3[n+](cc2c1OCCCCCNc1nc2ccc(Cl)cc2s1)CCc1cc2c(cc1-3)OCO2` [BBD 7] as the compound, how does the IC50 read?
Answer: The IC50 was 24.3 ± 0.419 µg/mL.

Question: Which IC50 does the source give for `COc1ccc2cc3[n+](cc2c1OCCCCCNc1nc2ccc(C)cc2s1)CCc1cc2c(cc1-3)OCO2` [BBD 4] here?
Answer: The IC50 was 37.3 ± 0.669 µg/mL.

same assay, conditions: Therapeutic index, TI = CC50/IC50

Question: With `COc1ccc2nc(NCCCCCOc3c(OC)ccc4cc5[n+](cc34)CCc3cc4c(cc3-5)OCO4)sc2c1` [BBD 5] as the compound, how does the “TI A/PR/8/34 (H1N1)” value read?
Answer: Its value is 7.749.

Question: With `CCOc1ccc2nc(NCCCCCOc3c(OC)ccc4cc5[n+](cc34)CCc3cc4c(cc3-5)OCO4)sc2c1` [BBD 6] as the compound, how does the “TI A/PR/8/34 (H1N1)” value read?
Answer: Its value is 5.176.

Question: Which “TI A/PR/8/34 (H1N1)” value does the source give for `COc1ccc2cc3[n+](cc2c1OCCCCCNc1nc2ccc(Cl)cc2s1)CCc1cc2c(cc1-3)OCO2` [BBD 7] here?
Answer: The value was 19.08.

Question: Which “TI A/PR/8/34 (H1N1)” value does the source give for `COc1ccc2cc3[n+](cc2c1OCCCCCNc1nc2ccc(C)cc2s1)CCc1cc2c(cc1-3)OCO2` [BBD 4] here?
Answer: The value was 8.655.

test system: influenza A virus A/Vic/3/75 (H3N2); test: as above; type: cell-based; conditions: Influenza A virus, H3N2, MDCK, 48 h

Question: With `COc1ccc2nc(NCCCCCOc3c(OC)ccc4cc5[n+](cc34)CCc3cc4c(cc3-5)OCO4)sc2c1` [BBD 5] as the compound, how does the IC50 read?
Answer: The IC50 was 57.3 ± 2.13 µg/mL.

Question: With `CCOc1ccc2nc(NCCCCCOc3c(OC)ccc4cc5[n+](cc34)CCc3cc4c(cc3-5)OCO4)sc2c1` [BBD 6] as the compound, how does the IC50 read?
Answer: Its IC50 is 60.4 ± 1.35 µg/mL.

Question: With `COc1ccc2cc3[n+](cc2c1OCCCCCNc1nc2ccc(Cl)cc2s1)CCc1cc2c(cc1-3)OCO2` [BBD 7] as the compound, how does the IC50 read?
Answer: The IC50 was 38.8 ± 2.51 µg/mL.

Question: Which IC50 does the source give for `COc1ccc2cc3[n+](cc2c1OCCCCCNc1nc2ccc(C)cc2s1)CCc1cc2c(cc1-3)OCO2` [BBD 4] here?
Answer: The IC50 was 55 ± 0.87 µg/mL.

same assay, conditions: Therapeutic index, TI = CC50/IC50

Question: For `COc1ccc2nc(NCCCCCOc3c(OC)ccc4cc5[n+](cc34)CCc3cc4c(cc3-5)OCO4)sc2c1` [BBD 5], which “TI A/VIC/3/75 (H3N2)” value is on record?
Answer: The value was 5.343.

Question: For `CCOc1ccc2nc(NCCCCCOc3c(OC)ccc4cc5[n+](cc34)CCc3cc4c(cc3-5)OCO4)sc2c1` [BBD 6], which “TI A/VIC/3/75 (H3N2)” value is on record?
Answer: Its value is 3.663.

Question: With `COc1ccc2cc3[n+](cc2c1OCCCCCNc1nc2ccc(Cl)cc2s1)CCc1cc2c(cc1-3)OCO2` [BBD 7] as the compound, how does the “TI A/VIC/3/75 (H3N2)” value read?
Answer: Its value is 11.94.

Question: With `COc1ccc2cc3[n+](cc2c1OCCCCCNc1nc2ccc(C)cc2s1)CCc1cc2c(cc1-3)OCO2` [BBD 4] as the compound, how does the “TI A/VIC/3/75 (H3N2)” value read?
Answer: The value was 5.862.

test system: influenza B virus B/Lee/40; test: as above; type: cell-based; conditions: Influenza B virus; MDCK cells, 50 TCID50, 48 h, mean ± S.D., triplicate

Question: With `COc1ccc2nc(NCCCCCOc3c(OC)ccc4cc5[n+](cc34)CCc3cc4c(cc3-5)OCO4)sc2c1` [BBD 5] as the compound, how does the IC50 read?
Answer: The IC50 was 36.9 ± 1.52 µg/mL.

Question: Which IC50 does the source give for `CCOc1ccc2nc(NCCCCCOc3c(OC)ccc4cc5[n+](cc34)CCc3cc4c(cc3-5)OCO4)sc2c1` [BBD 6] here?
Answer: The IC50 was 38.8 ± 2.08 µg/mL.

Question: With `COc1ccc2cc3[n+](cc2c1OCCCCCNc1nc2ccc(Cl)cc2s1)CCc1cc2c(cc1-3)OCO2` [BBD 7] as the compound, how does the IC50 read?
Answer: Its IC50 is 81.4 ± 3.01 µg/mL.

Question: With `COc1ccc2cc3[n+](cc2c1OCCCCCNc1nc2ccc(C)cc2s1)CCc1cc2c(cc1-3)OCO2` [BBD 4] as the compound, how does the IC50 read?
Answer: Its IC50 is 43.2 ± 0.86 µg/mL.

same assay, conditions: Therapeutic index, TI = CC50/IC50

Question: For `COc1ccc2nc(NCCCCCOc3c(OC)ccc4cc5[n+](cc34)CCc3cc4c(cc3-5)OCO4)sc2c1` [BBD 5], which “TI B/LEE/40” value is on record?
Answer: Its value is 8.294.

Question: Which “TI B/LEE/40” value does the source give for `CCOc1ccc2nc(NCCCCCOc3c(OC)ccc4cc5[n+](cc34)CCc3cc4c(cc3-5)OCO4)sc2c1` [BBD 6] here?
Answer: The value was 5.712.

Question: With `COc1ccc2cc3[n+](cc2c1OCCCCCNc1nc2ccc(C)cc2s1)CCc1cc2c(cc1-3)OCO2` [BBD 4] as the compound, how does the “TI B/LEE/40” value read?
Answer: The value was 7.406.

test system: influenza B virus B/Maryland/1/59; test: as above; type: cell-based; conditions: Influenza B virus; MDCK cells, 50 TCID50, 48 h, mean ± S.D., triplicate; read-out: IC50 B/MARYLAND/1/59

Question: Which IC50 does the source give for `COc1ccc2nc(NCCCCCOc3c(OC)ccc4cc5[n+](cc34)CCc3cc4c(cc3-5)OCO4)sc2c1` [BBD 5] here?
Answer: Its IC50 is 44.3 ± 2.06 µg/mL.

Question: Which IC50 does the source give for `CCOc1ccc2nc(NCCCCCOc3c(OC)ccc4cc5[n+](cc34)CCc3cc4c(cc3-5)OCO4)sc2c1` [BBD 6] here?
Answer: Its IC50 is 36.9 ± 2.15 µg/mL.

Question: Which IC50 does the source give for `COc1ccc2cc3[n+](cc2c1OCCCCCNc1nc2ccc(Cl)cc2s1)CCc1cc2c(cc1-3)OCO2` [BBD 7] here?
Answer: Its IC50 is 88.1 ± 1.16 µg/mL.

Question: With `COc1ccc2cc3[n+](cc2c1OCCCCCNc1nc2ccc(C)cc2s1)CCc1cc2c(cc1-3)OCO2` [BBD 4] as the compound, how does the IC50 read?
Answer: The IC50 was 41.6 ± 0.67 µg/mL.

same assay, conditions: Therapeutic index, TI = CC50/IC50

Question: Which “TI B/MARYLAND/1/59” value does the source give for `COc1ccc2nc(NCCCCCOc3c(OC)ccc4cc5[n+](cc34)CCc3cc4c(cc3-5)OCO4)sc2c1` [BBD 5] here?
Answer: Its value is 6.921.

Question: With `CCOc1ccc2nc(NCCCCCOc3c(OC)ccc4cc5[n+](cc34)CCc3cc4c(cc3-5)OCO4)sc2c1` [BBD 6] as the compound, how does the “TI B/MARYLAND/1/59” value read?
Answer: Its value is 6.003.

Question: With `COc1ccc2cc3[n+](cc2c1OCCCCCNc1nc2ccc(Cl)cc2s1)CCc1cc2c(cc1-3)OCO2` [BBD 7] as the compound, how does the “TI B/MARYLAND/1/59” value read?
Answer: The value was 5.259.

Question: With `COc1ccc2cc3[n+](cc2c1OCCCCCNc1nc2ccc(C)cc2s1)CCc1cc2c(cc1-3)OCO2` [BBD 4] as the compound, how does the “TI B/MARYLAND/1/59” value read?
Answer: The value was 7.762.

molecular target: influenza virus neuraminidase (Influenza A virus, UniProt P03468); test: Viral neuraminidase inhibition assay (NA-Star kit); type: biochemical, influenza A/PR/8/34 virus; conditions: at 0.1 μg/mL; (Treatment/Virus) × 100, remaining activity
Sequence (P03468 whole entry, looked up): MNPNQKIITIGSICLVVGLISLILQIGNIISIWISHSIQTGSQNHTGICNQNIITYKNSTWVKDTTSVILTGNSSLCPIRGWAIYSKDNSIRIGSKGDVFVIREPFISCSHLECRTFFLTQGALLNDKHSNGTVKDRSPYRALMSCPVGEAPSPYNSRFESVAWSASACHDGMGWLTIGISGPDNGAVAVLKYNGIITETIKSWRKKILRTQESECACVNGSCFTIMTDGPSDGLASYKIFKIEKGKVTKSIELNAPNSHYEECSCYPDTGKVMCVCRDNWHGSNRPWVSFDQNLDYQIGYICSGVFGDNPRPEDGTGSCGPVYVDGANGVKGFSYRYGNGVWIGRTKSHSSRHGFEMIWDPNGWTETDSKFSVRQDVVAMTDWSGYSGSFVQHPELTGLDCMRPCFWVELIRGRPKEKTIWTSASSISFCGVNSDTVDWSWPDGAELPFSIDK

Question: With `COc1ccc2cc3[n+](cc2c1OCCCCCNc1nc2ccc(Cl)cc2s1)CCc1cc2c(cc1-3)OCO2` [BBD 7] as the compound, how does the activity at 0.1 µg/mL read?
Answer: The activity at 0.1 µg/mL was 37.4%.

same assay, conditions: at 1 μg/mL; (Treatment/Virus) × 100, remaining activity

Question: For `COc1ccc2cc3[n+](cc2c1OCCCCCNc1nc2ccc(Cl)cc2s1)CCc1cc2c(cc1-3)OCO2` [BBD 7], which activity at 1 µg/mL is on record?
Answer: The activity at 1 µg/mL was 32.1%.

same assay, conditions: at 10 μg/mL; (Treatment/Virus) × 100, remaining activity

Question: For `COc1ccc2cc3[n+](cc2c1OCCCCCNc1nc2ccc(Cl)cc2s1)CCc1cc2c(cc1-3)OCO2` [BBD 7], which activity at 10 µg/mL is on record?
Answer: The activity at 10 µg/mL was 14.5%.

same assay, conditions: compared with oseltamivir, Figure 1

Question: For `COc1ccc2nc(NCCCCCOc3c(OC)ccc4cc5[n+](cc34)CCc3cc4c(cc3-5)OCO4)sc2c1` [BBD 5], which “NA inhibition activity (in words)” value is on record?
Answer: The value was “moderate NA inhibition activity”.

Question: With `COc1ccc2cc3[n+](cc2c1OCCCCCNc1nc2ccc(C)cc2s1)CCc1cc2c(cc1-3)OCO2` [BBD 4] as the compound, how does the “NA inhibition activity (in words)” value read?
Answer: Its value is “moderate NA inhibition activity”.

test system: MDCK cells; test: not given; conditions: dog, 48 h

Question: Which CC50 does the source give for `COc1ccc2nc(NCCCCCOc3c(OC)ccc4cc5[n+](cc34)CCc3cc4c(cc3-5)OCO4)sc2c1` [BBD 5] here?
Answer: Its CC50 is 306.4 ± 3.612 µg/mL.

Question: With `CCOc1ccc2nc(NCCCCCOc3c(OC)ccc4cc5[n+](cc34)CCc3cc4c(cc3-5)OCO4)sc2c1` [BBD 6] as the compound, how does the CC50 read?
Answer: Its CC50 is 221.4 ± 1.180 µg/mL.

Question: With `COc1ccc2cc3[n+](cc2c1OCCCCCNc1nc2ccc(Cl)cc2s1)CCc1cc2c(cc1-3)OCO2` [BBD 7] as the compound, how does the CC50 read?
Answer: The CC50 was 463.5 ± 3.386 µg/mL.

Question: For `COc1ccc2cc3[n+](cc2c1OCCCCCNc1nc2ccc(C)cc2s1)CCc1cc2c(cc1-3)OCO2` [BBD 4], which CC50 is on record?
Answer: Its CC50 is 322.6 ± 2.543 µg/mL.

test system: not listed separately; test: in vitro; conditions: dog

Question: Which CC50 at 48 h does the source give for `COc1ccc2nc(NCCCCCOc3c(OC)ccc4cc5[n+](cc34)CCc3cc4c(cc3-5)OCO4)sc2c1` [BBD 5] here?
Answer: The CC50 at 48 h was > 100 µg/mL.

Question: For `CCOc1ccc2nc(NCCCCCOc3c(OC)ccc4cc5[n+](cc34)CCc3cc4c(cc3-5)OCO4)sc2c1` [BBD 6], which CC50 at 48 h is on record?
Answer: The CC50 at 48 h was > 100 µg/mL.

Question: Which CC50 at 48 h does the source give for `COc1ccc2cc3[n+](cc2c1OCCCCCNc1nc2ccc(Cl)cc2s1)CCc1cc2c(cc1-3)OCO2` [BBD 7] here?
Answer: Its CC50 at 48 h is > 100 µg/mL.

Question: With `COc1ccc2cc3[n+](cc2c1OCCCCCNc1nc2ccc(C)cc2s1)CCc1cc2c(cc1-3)OCO2` [BBD 4] as the compound, how does the CC50 at 48 h read?
Answer: The CC50 at 48 h was > 100 µg/mL.
